Reference: the NIST ThermoML archive (doi:10.1016/j.jct.2004.12.008)
± gives the expanded uncertainty stated by the source.

Experiment: xn = mol fraction of the nth substance listed
Conditions: 101 kPa, Liquid

Compound: O=[N+]([O-])c1ccccc1 [nitrobenzene] + Cc1ccccc1C
- mass density (293.15 K, x2 = 0): 1202.95 ± 2.3 kg/m3
- mass density (293.15 K, x2 = 0.0498): 1184.47 ± 2.1 kg/m3
- mass density (293.15 K, x2 = 0.1289): 1155.75 ± 1.9 kg/m3
- mass density (293.15 K, x2 = 0.1892): 1134.33 ± 1.7 kg/m3
- mass density (293.15 K, x2 = 0.2532): 1112.04 ± 1.6 kg/m3
- mass density (293.15 K, x2 = 0.3234): 1088.07 ± 1.4 kg/m3
- mass density (293.15 K, x2 = 0.3891): 1066.07 ± 1.2 kg/m3
- mass density (293.15 K, x2 = 0.4421): 1048.61 ± 1.1 kg/m3
- mass density (293.15 K, x2 = 0.4923): 1032.31 ± 0.93 kg/m3
- mass density (293.15 K, x2 = 0.5534): 1012.76 ± 0.77 kg/m3
- mass density (293.15 K, x2 = 0.6132): 993.93 ± 0.72 kg/m3
- mass density (293.15 K, x2 = 0.6734): 975.26 ± 0.86 kg/m3
- mass density (293.15 K, x2 = 0.7321): 957.32 ± 1 kg/m3
- mass density (293.15 K, x2 = 0.7931): 938.95 ± 1.1 kg/m3
- mass density (293.15 K, x2 = 0.8523): 921.38 ± 1.3 kg/m3
- mass density (293.15 K, x2 = 0.9323): 898.02 ± 1.5 kg/m3
- mass density (303.15 K, x2 = 0): 1193.56 ± 2.2 kg/m3
- mass density (303.15 K, x2 = 0.0535): 1173.86 ± 2.1 kg/m3
- mass density (303.15 K, x2 = 0.1123): 1152.62 ± 1.9 kg/m3
- mass density (303.15 K, x2 = 0.1782): 1129.29 ± 1.7 kg/m3
- mass density (303.15 K, x2 = 0.2423): 1107.06 ± 1.5 kg/m3
- mass density (303.15 K, x2 = 0.3139): 1082.76 ± 1.3 kg/m3
- mass density (303.15 K, x2 = 0.3687): 1064.49 ± 1.2 kg/m3
- mass density (303.15 K, x2 = 0.4348): 1042.84 ± 1 kg/m3
- mass density (303.15 K, x2 = 0.5023): 1021.14 ± 0.84 kg/m3
- mass density (303.15 K, x2 = 0.5681): 1000.36 ± 0.67 kg/m3
- mass density (303.15 K, x2 = 0.6189): 984.56 ± 0.79 kg/m3
- mass density (303.15 K, x2 = 0.6892): 963.04 ± 0.96 kg/m3
- mass density (303.15 K, x2 = 0.7422): 947.07 ± 1.1 kg/m3
- mass density (303.15 K, x2 = 0.8021): 929.26 ± 1.2 kg/m3
- mass density (303.15 K, x2 = 0.8731): 908.5 ± 1.4 kg/m3
- mass density (303.15 K, x2 = 0.9298): 892.17 ± 1.5 kg/m3
- mass density (313.15 K, x2 = 0): 1183.37 ± 2.1 kg/m3
- mass density (313.15 K, x2 = 0.0621): 1160.16 ± 1.9 kg/m3
- mass density (313.15 K, x2 = 0.1298): 1135.44 ± 1.8 kg/m3
- mass density (313.15 K, x2 = 0.1924): 1113.1 ± 1.6 kg/m3
- mass density (313.15 K, x2 = 0.2499): 1092.98 ± 1.4 kg/m3
- mass density (313.15 K, x2 = 0.3234): 1067.82 ± 1.2 kg/m3
- mass density (313.15 K, x2 = 0.3891): 1045.81 ± 1 kg/m3
- mass density (313.15 K, x2 = 0.4348): 1030.76 ± 0.92 kg/m3
- mass density (313.15 K, x2 = 0.5109): 1006.14 ± 0.73 kg/m3
- mass density (313.15 K, x2 = 0.5782): 984.82 ± 0.79 kg/m3
- mass density (313.15 K, x2 = 0.6328): 967.81 ± 0.93 kg/m3
- mass density (313.15 K, x2 = 0.6902): 950.21 ± 1.1 kg/m3
- mass density (313.15 K, x2 = 0.7591): 929.44 ± 1.2 kg/m3
- mass density (313.15 K, x2 = 0.8244): 910.1 ± 1.4 kg/m3
- mass density (313.15 K, x2 = 0.8823): 893.22 ± 1.5 kg/m3
- mass density (313.15 K, x2 = 0.9357): 877.88 ± 1.6 kg/m3
- mass density (323.15 K, x2 = 0): 1172.38 ± 2 kg/m3
- mass density (323.15 K, x2 = 0.0634): 1147.74 ± 1.9 kg/m3
- mass density (323.15 K, x2 = 0.1244): 1124.62 ± 1.7 kg/m3
- mass density (323.15 K, x2 = 0.1824): 1103.12 ± 1.5 kg/m3
- mass density (323.15 K, x2 = 0.2311): 1085.44 ± 1.4 kg/m3
- mass density (323.15 K, x2 = 0.2893): 1064.7 ± 1.2 kg/m3
- mass density (323.15 K, x2 = 0.3214): 1053.45 ± 1.1 kg/m3
- mass density (323.15 K, x2 = 0.3855): 1031.35 ± 0.92 kg/m3
